Paper PMC6271245, “Discovery of Gramine Derivatives That Inhibit the Early Stage of EV71 Replication in Vitro” (Molecules, 2014)
≈ marks a conversion by molar mass, not a printed value.

Experiments:
[1] = Cytotoxicity on uninfected RD cells, MTT; format: cell-based; conditions: human, concentration reducing cell viability by 50%
Procedure: Human RD cells and Vero cells were maintained in Dulbecco’s modified Eagle’s medium (Gibco-Invitrogen, Carlsbad, CA, USA) supplemented with 10% fetal bovine serum (FBS; Gibco), 100 U/mL of penicillin and streptomycin, and 2 mM L-glutamine. Enterovirus 71 (EV71) was kindly provided by Zhanqiu Yang (Institute of Medical Virology, School of Medicine, Wuhan University, China) and propagated in RD cell lines. The virus titer was determined by the standard method of median tissue culture infective dose (TCID50) on RD cells.
The activity of compounds against EV71 was determined based on the inhibition of virus-induced cytopathogenicity effects (CPEs) in acutely infected cells. Vero and RD cells grown to 90% confluency in 96-well dishes were washed with phosphate buffered saline (PBS) and infected with 100 TCID50 of EV71 mixed with serial dilutions of tested compounds for 1.5 h at 37 °C. The inoculum was aspirated and cells were incubated with DMEM and test compounds at 37 °C, 5% CO2 for 48 h. The CPEs were observed microscopically and the viability of the cells was determined with a 3-(4,5-dimethylthiazol-2-yl)-2,5-diphenyltetrazolium bromide (MTT) assay. The concentrations required for the test compounds to achieve 50% protection from virus-induced cytopathogenicity (EC50) were determined. Adverse effects of these compounds on the host cells were also assessed by means of the MTT-method; by exposing uninfected cells to various concentrations of test compounds for 48 h at 37 °C, the viability of the cells was detected. The 50% cell cytotoxic concentrations (CC50) of compounds were calculated with the SPSS software (SPSS, Chicago, IL, USA). Selectivity indexes were calculated as the ratio of CC50: EC50.
(§1) Cell viability was assessed by an MTT assay, which functions based on the reduction of a MTT into formazan dye by active mitochondria. The cells were treated with 100 µL of MTT (1 mg/mL, Sigma, St. Louis, MO, USA) and incubated at 37 °C for 4 h. The reaction was blocked by DMSO and measured in a microplate reader (Bio-Tek Instruments, Winooski, VT, USA) at 492 nm. The untreated control was arbitrarily set as 100%.

EV71 [2] = test: Analysis of effective stage (treatment before, during or post infection) in RD cells; format: cell-based, Enterovirus 71; conditions: for titers of virus from infected cells, treatment before infection (preventive effect): RD cells pretreated 2 h with 10 µg/mL 4a, 20 µg/mL 4i, 40 µg/mL 4r or 4s, 48 h; for inhibition of virus-induced CPEs, post-infection treatment: up to 40 µg/mL
Procedure: To identify the step in the viral life cycle that is affected by these compounds, the assays were performed using three different treatment protocols. […] For all treatments, cell viability and progeny virus yields were measured after 48 h of infection.
(§2) Figure 2 Analysis of modes of action against EV71 of gramine derivatives. Analysis of effective stage. The RD cells were treated with tested compounds before, simultaneously or after EV71 (100 TCID50) inoculation: antiviral effects were detected by measuring (A) cell viability and (B) progeny virus yields (10 µg/mL 4a, 20 µg/mL 4i, 40 µg/mL 4r and 4s) 48 h post infection; (C) Analysis of the effects on EV71 adsorption. Mock- or 10 µg/mL 4a, 20 µg/mL 4i, 40 µg/mL 4r and 4s-treated EV71 (10^4 TCID50) was spinoculated onto RD cells and adsorbed for 2 h; intracellular virus was subjected to titration using the TCID50 method; (D) Effects on EV71 release from RD cells. RD cells infected with 100 TCID50 of EV71 were incubated with 10 µg/mL 4a, 20 µg/mL 4i, 40 µg/mL 4r and 4s for 12 h, of both cells and supernatants (intra- and extracellular), or of cells or supernatants harvested separately for virus titration. […] Values represent the mean ± standard deviation of three independent experiments.
as §1
(§3) The virus suspension, serially diluted 10-fold with DMEM containing 2% FBS, was inoculated to cells in a 96-well plate. After 1 h incubation at 37 °C in 5% CO2, unbinding virus was washed out and MM was added to the cells. After 2 days, the infected cells were monitored for cytopathic effects (CPEs). The virus titer was calculated by the Reed–Muench method.

EV71 [3] = test: Effect on EV71 adsorption, intracellular virus titration; format: cell-based, Enterovirus 71; conditions: EV71 (10^4 TCID50) treated with 10 µg/mL 4a, 20 µg/mL 4i, 40 µg/mL 4r or 4s, spinoculated onto RD cells, adsorbed 2 h
Procedure: Mock- or 10 µg/mL 4a, 20 µg/mL 4i, or 40 µg/mL 4r or 4s-treated EV71 (10^4 TCID50) were spinoculated onto cells and adsorbed for 2 h. The infected cells were harvested following freeze–thaw cycles and then subjected to virus titration.
as §2, §3

EV71 [4] = test: Time-of-addition assay, progeny virus yield; format: cell-based, Enterovirus 71; conditions: compound present -1-10 h pi (similar for 0–10 h and 2–10 h); 10 µg/mL 4a, 20 µg/mL 4i, 40 µg/mL 4r or 4s; RD cells; 12 h pi
Procedure: To further understand the mechanisms of these gramine derivatives against EV71 propagation in cells, a time-of-addition experiment was performed. For this experiment, 10 µg/mL 4a, 20 µg/mL 4i, or 40 µg/mL 4r or 4s were added to infected cultures at different time periods (with 2 h intervals) and the reductions in virus yield relative to untreated cultures were determined at 12 h pi. […] With drugs treatments during other periods after EV71 infection, a gradual increase of viral yields was observed, reflecting the loss of the antiviral effects of the compounds. Results from this experiment indicate that these gramine derivatives may exert antiviral effects via the same action mechanism and mainly interfere with the early events of virus replication.
Figure 3 Time-of-addition assay. 10 µg/mL 4a, 20 µg/mL 4i, or 40 µg/mL 4r or 4s were added to RD cells at different time periods after EV71 infection. At 12 h pi, the progeny virus yield was determined (−1–0 h: viral infection period; 0–10 h: period for virus proliferation in the cells). Values are represented as the mean ± standard deviation.
Time-of-addition experiments were carried out, to estimate the point where the compound interfered with the replication cycle of EV71. The RD cells were infected with 100 TCID50 of EV71 and then 10 µg/mL 4a, 20 µg/mL 4i, or 40 µg/mL 4r or 4s was added at different time phases (−1–0 h, 0–10 h, 2–10 h, 4–10 h, 6–10 h, 8–10 h and −1–10 h pi, where −1–0 h is the viral infection period and 0–10 h is the period for virus proliferation in the cells). The cells and supernatants were harvested at […] and subjected to three freeze–thaw cycles, after which the viruses were titered by the Reed-Muench method.

[5] = Enterovirus A, RD cells, 100 TCID50 EV71, 48 h, MTT, read-out: viability rate of infected cells, post-infection treatment

Compound | CC50 at 48 h [1] | viability at 10 µg/mL (EV71 [2]; Enterovirus A, 10 µg/mL, RD cells, 100 TCID50 EV71, 48 h, MTT, read-out: viability rate of infected cells, post-infection treatment) | titers of virus from infected cells, treatment before infection (preventive effect) (EV71 [2]) | inhibition of CPEs, post-infection treatment (EV71 [2]; at 40 µg/mL and 20 µg/mL, due to cytotoxic effects on cells) | intracellular virus titer during virus attachment (EV71 [3]) | titers of the progeny virus, time of addition (EV71 [4]) | viability at 20 µg/mL (EV71 [2]; Enterovirus A, 20 µg/mL, RD cells, 100 TCID50 EV71, 48 h, MTT, read-out: viability rate of infected cells, post-infection treatment) | viability at 40 µg/mL (EV71 [2]; [5]) | inhibition of virus-induced CPEs, post-infection treatment (EV71 [2]; RD cells)
c1ccc(C(Nc2ccccn2)c2c[nH]c3ccccc23)cc1 (centres unmarked) [Compound 4a] | 17.2 ± 1.6 µg/mL (≈ 57.5 µM) | 85.8% | nearly the same as those from untreated cells | no inhibition of CPEs | no significant decrease in virus titer | strongly reduced |  |  | 
Cn1cc(C(Nc2ccccn2)c2ccc(F)cc2)c2ccccc21 (centres unmarked) [Compound 4i] | 65.2 ± 7.6 µg/mL (≈ 197 µM) |  | nearly the same as those from untreated cells |  | no significant decrease in virus titer | strongly reduced | 90.5% |  | 
Cn1cc(C(Nc2nc3ccccc3s2)c2ccccc2F)c2ccccc21 (centres unmarked) [Compound 4r] | 150 ± 16.2 µg/mL (≈ 387 µM) |  | nearly the same as those from untreated cells |  | no significant decrease in virus titer | strongly reduced |  | 84.6% | almost completely inhibited virus-induced CPEs
c1ccc(C(Nc2nc3ccccc3s2)c2c[nH]c3ccccc23)nc1 (centres unmarked) [Compound 4s] | 137 ± 9.3 µg/mL (≈ 383 µM) |  | nearly the same as those from untreated cells |  | no significant decrease in virus titer | strongly reduced |  | 95.7% | almost completely inhibited virus-induced CPEs
